According to PubChem BioAssay AID2060899 (Molecular Pharmacology Branch, DTP, NCI, 2025):

Test system: 565726-208-R1-J5-PDC complex spheroids, growth inhibition
Experiment: Anticancer human tumor 565726-208-R1-J5-PDC patient-derived pancreatic adenocarcinoma cell line growth inhibition [RAS]
Settings: for viability, T/C: stronger effect = lower value
Summary of the method: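 Agents were tested in combination matrices in half-log decrements from a top concentration at or near clinical Cmax (10 microM if undetermined). Targets were multi-cell spheroids of tumour lines plus HUVEC and MSC stromal cells.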

[1] = curve of first compound, second compound 0.0316 µM
[2] = curve of first compound, second compound 0.1 µM
[3] = curve of first compound, second compound 0.316 µM
[4] = curve of first compound, second compound 1 µM
[5] = curve of first compound, second compound 3.16 µM
[6] = curve of first compound, second compound 10 µM
[7] = second compound 0.0316 µM, first compound 0.0316 µM
[8] = second compound 0.0316 µM, first compound 0.1 µM
[9] = second compound 0.0316 µM, first compound 0.316 µM
[10] = second compound 0.0316 µM, first compound 1 µM
[11] = second compound 0.1 µM, first compound 0.0316 µM
[12] = second compound 0.1 µM, first compound 0.1 µM
[13] = second compound 0.1 µM, first compound 0.316 µM
[14] = second compound 0.1 µM, first compound 1 µM
[15] = second compound 0.316 µM, first compound 0.0316 µM
[16] = second compound 0.316 µM, first compound 0.1 µM
[17] = second compound 0.316 µM, first compound 0.316 µM
[18] = second compound 0.316 µM, first compound 1 µM
[19] = second compound 1 µM, first compound 0.0316 µM
[20] = second compound 1 µM, first compound 0.1 µM
[21] = second compound 1 µM, first compound 0.316 µM
[22] = second compound 1 µM, first compound 1 µM
[23] = second compound 3.16 µM, first compound 0.0316 µM
[24] = second compound 3.16 µM, first compound 0.1 µM
[25] = second compound 3.16 µM, first compound 0.316 µM
[26] = second compound 3.16 µM, first compound 1 µM
[27] = second compound 10 µM, first compound 0.0316 µM
[28] = second compound 10 µM, first compound 0.1 µM
[29] = second compound 10 µM, first compound 0.316 µM
[30] = second compound 10 µM, first compound 1 µM
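Further: spheroids exposed to compounds for seven days before readout.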
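Wherever viability, T/C is given: 100% = DMSO vehicle control viability.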

CCN1CCN(Cc2ccc(Nc3ncc(F)c(-c4cc(F)c5nc(C)n(C(C)C)c5c4)n3)nc2)CC1 + C#Cc1c(F)ccc2cc(O)cc(-c3ncc4c(N5CC6CCC(C5)N6)nc(OCC56CCCN5CC(F)C6)nc4c3F)c12
IC50 [1]: > 1 µM
IC50 [2]: > 1 µM
IC50 [3]: > 1 µM
IC50 [4]: > 1 µM
IC50 [5]: 0.0928 µM
IC50 [6]: 0.0612 µM
viability, T/C (second compound 0.0316 µM, first compound 0.00316 µM): 83.6%
viability, T/C (second compound 0.0316 µM, first compound 0.01 µM): 130%
viability, T/C [7]: 74.6%
viability, T/C [8]: 79.2%
viability, T/C [9]: 86.8%
viability, T/C [10]: 89.1%
viability, T/C (second compound 0.1 µM, first compound 0.00316 µM): 109%
viability, T/C (second compound 0.1 µM, first compound 0.01 µM): 122%
viability, T/C [11]: 75.6%
viability, T/C [12]: 66.9%
viability, T/C [13]: 76.5%
viability, T/C [14]: 101%
viability, T/C (second compound 0.316 µM, first compound 0.00316 µM): 116%
viability, T/C (second compound 0.316 µM, first compound 0.01 µM): 143%
viability, T/C [15]: 67.8%
viability, T/C [16]: 64.1%
viability, T/C [17]: 77.5%
viability, T/C [18]: 82.4%
viability, T/C (second compound 1 µM, first compound 0.00316 µM): 127%
viability, T/C (second compound 1 µM, first compound 0.01 µM): 115%
viability, T/C [19]: 87%
viability, T/C [20]: 61.2%
viability, T/C [21]: 46.8%
viability, T/C [22]: 72.5%
viability, T/C (second compound 3.16 µM, first compound 0.00316 µM): 99.1%
viability, T/C (second compound 3.16 µM, first compound 0.01 µM): 105%
viability, T/C [23]: 57.6%
viability, T/C [24]: 56.6%
viability, T/C [25]: 46.2%
viability, T/C [26]: 45.6%
viability, T/C (second compound 10 µM, first compound 0.00316 µM): 87.7%
viability, T/C (second compound 10 µM, first compound 0.01 µM): 78.5%
viability, T/C [27]: 56.9%
viability, T/C [28]: 41.4%
viability, T/C [29]: 44.3%
viability, T/C [30]: 28.9%

CCn1c(-c2cc(N3CCN(C)CC3)cnc2C(C)OC)c2c3cc(ccc31)-c1csc(n1)CC(NC(=O)C1CC1C)C(=O)N1CCCC(N1)C(=O)OCC(C)(C)C2 (stereo unspecified)
viability, T/C (compound 0.000949 µM): 65% [middle of 8 runs]
viability, T/C (compound 0.003 µM): 55.2% [middle of 8 runs]
viability, T/C (compound 0.00949 µM): 43.7% [middle of 8 runs]
viability, T/C (compound 0.03 µM): 33.3% [middle of 7 runs]
viability, T/C (compound 0.0949 µM): 27.4% [middle of 7 runs]
viability, T/C (compound 0.3 µM): 24.9% [middle of 8 runs]
IC50 (compound alone, run of 07/09/2024): 4 nM [middle of 8 runs]

CC1(O)CCCC1n1c(=O)c(C(F)F)cc2cnc(NC3CCN(S(C)(=O)=O)CC3)nc21 (stereo unspecified) + C#Cc1c(F)ccc2cc(O)cc(-c3ncc4c(N5CC6CCC(C5)N6)nc(OCC56CCCN5CC(F)C6)nc4c3F)c12
IC50 [1]: 3.32 µM
IC50 [2]: 3.29 µM
IC50 [3]: 3.9 µM
IC50 [4]: 1.54 µM
IC50 [5]: 1.14 µM
IC50 [6]: 0.606 µM
viability, T/C [7]: 82.3%
viability, T/C [8]: 87.4%
viability, T/C [9]: 76.7%
viability, T/C [10]: 56.2%
viability, T/C (second compound 0.0316 µM, first compound 3.16 µM): 62.2%
viability, T/C (second compound 0.0316 µM, first compound 10 µM): 5.34%
viability, T/C [11]: 93.8%
viability, T/C [12]: 103%
viability, T/C [13]: 69.9%
viability, T/C [14]: 65.9%
viability, T/C (second compound 0.1 µM, first compound 3.16 µM): 63.7%
viability, T/C (second compound 0.1 µM, first compound 10 µM): 4.76%
viability, T/C [15]: 91.6%
viability, T/C [16]: 95%
viability, T/C [17]: 75.6%
viability, T/C [18]: 66.2%
viability, T/C (second compound 0.316 µM, first compound 3.16 µM): 69%
viability, T/C (second compound 0.316 µM, first compound 10 µM): 5.83%
viability, T/C [19]: 96%
viability, T/C [20]: 93.9%
viability, T/C [21]: 59.7%
viability, T/C [22]: 55%
viability, T/C (second compound 1 µM, first compound 3.16 µM): 50.9%
viability, T/C (second compound 1 µM, first compound 10 µM): 5.01%
viability, T/C [23]: 88.4%
viability, T/C [24]: 81.7%
viability, T/C [25]: 55.6%
viability, T/C [26]: 50%
viability, T/C (second compound 3.16 µM, first compound 3.16 µM): 46.4%
viability, T/C (second compound 3.16 µM, first compound 10 µM): 2.99%
viability, T/C [27]: 78.8%
viability, T/C [28]: 67.1%
viability, T/C [29]: 53.1%
viability, T/C [30]: 43.9%
viability, T/C (second compound 10 µM, first compound 3.16 µM): 32.4%
viability, T/C (second compound 10 µM, first compound 10 µM): 0.3%
